Measured values reported in patent US5344846A, “Compositions and methods for inhibiting deoxyhypusine synthase and the growth of cells” (The United States of America as represented by the …, priority 1992, dated 1994).
“Also recorded” adds a separate entry of the source. Like-named read-outs stand apart in the source and are kept apart here. One block for each molecule: values may come before it.

Legend:
[1] = test system: deoxyhypusine synthase from HTC cells; conditions: 20 μM inhibitor; 1 μM spermidine; precursor from DFMO-treated HTC cells; cited from earlier work
[2] = biological target: T1, deoxyhypusine synthase from rat testis (Rattus norvegicus, UniProt Q6AY53); test: Inhibition of deoxyhypusine synthase ([3H]deoxyhypusine formation from [3H]spermidine), IC50/Ki; type: biochemical; conditions: for relative inhibitory potency (in words): comparison with parent amine, bisguanylated counterpart or another inhibitor; for Ki: competitive vs spermidine
T1 construct: as catalyzed by deoxyhypusine synthase from rat testis; from tissue; host or cells: rat testis
T1 sequence (Q6AY53 1-369): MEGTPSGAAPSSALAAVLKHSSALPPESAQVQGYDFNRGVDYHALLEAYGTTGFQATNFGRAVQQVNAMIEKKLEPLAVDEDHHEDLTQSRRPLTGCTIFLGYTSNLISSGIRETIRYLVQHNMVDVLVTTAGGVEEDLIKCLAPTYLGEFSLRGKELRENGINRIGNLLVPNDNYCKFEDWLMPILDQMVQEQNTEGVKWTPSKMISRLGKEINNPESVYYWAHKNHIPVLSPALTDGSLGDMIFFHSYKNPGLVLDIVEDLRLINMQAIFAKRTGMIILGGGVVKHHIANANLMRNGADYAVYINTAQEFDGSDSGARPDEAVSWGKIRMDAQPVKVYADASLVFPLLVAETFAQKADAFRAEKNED
Protocol: The enzyme assay was performed as previously described (see Wolff et al. (1990) J. Biol. Chem. 265:4793-4799; and Park et al. (1991) J. Biol. Chem. 266:7988-7994). A typical assay mixture included 0.2M glycine, 1 mM dithiothreitol, 0.5 mM NAD^+, 2.4 micromolar (μM) [1,8-^3 H] spermidine, 1 μM ec-eIF-5A(Lys), 25 micrograms (μg) bovine serum albumin, and 3-15 units of enzyme in a total volume of 20 microliters (μl). Incubations were carried out at pH 9.3 and 37° C. for 1 hour. […] Percent inhibition was plotted versus log inhibitor concentration in order to obtain graphic estimates of IC50 values, i.e., the concentrations inhibiting [^3 H]deoxyhypusine production by 50%. The IC50 values reported in the tables were calculated by fitting the data points to equation 1 where x=% inhibition and I is the inhibitor concentration. [formula] The nature of the inhibition was determined by plotting reciprocal velocities of [^3 H]deoxyhypusine production against reciprocals of [^3 H]spermidine concentrations at a constant fixed level of ec-eIF-5A(Lys) (1 μM) and at set inhibitor concentrations. […] Estimates of Ki values were made by fitting the data to equation 2; wherein v is the velocity of the reaction, V is the maximum velocity, S is the substrate concentration, Km is Michaeli's constant, Ki is the inhibition constant, and I is the inhibitor concentration. [formula] All fits were performed by means of an interactive curve-fitting program, MLAB, developed and modified at the National Institutes of Health to run on an IBM personal computer.

deoxyhypusine synthase = biological target: T2, deoxyhypusine synthase (Rattus norvegicus, UniProt Q6AY53); conditions: earlier publications, cited from earlier work
T2 construct: full-length homotetramer; substrate was human eIF-5A precursor expressed in E. coli
T2 sequence (Q6AY53 1-369): T1 sequence (Q6AY53 1-369)

[3] = cited from earlier work
[4] = pH 9.3, 37° C., 1 hour, 2.4 μM [3H]spermidine

Molecule: NCCCNCCC(F)CN (stereo not drawn) [7-monofluorospermidine]
inhibition of deoxyhypusine synthase [1]: 35%

inhibition of deoxyhypusine synthase (in words) [2, 4]: Some degree of inhibition
Molecule: CC(N)CCNCCCCN (stereo not drawn) [Compound 35, 1-Methyl spermidine]

inhibition of deoxyhypusine synthase (in words) [2, 4]: failure to inhibit the enzyme
Molecule: NCCCN[C@H]1CC[C@@H](N)CC1 [Compound 32, N-(3-aminopropyl)-1,4-diaminocyclohexane]

Molecule: NC(=O)c1ccc[n+]([C@@H]2O[C@H](COP(=O)([O-])OP(=O)(O)OC[C@H]3O[C@@H](n4cnc5c(N)ncnc54)[C@H](OP(=O)(O)O)[C@@H]3O)[C@@H](O)[C@H]2O)c1 [NADP^+]
substrate or cofactor function for deoxyhypusine synthase (deoxyhypusine synthase): negligible

Molecule: CN(CCCN)CCCN [Compound 30, N^4 -methylcaldine]
inhibition of deoxyhypusine synthase (in words) [2, 4]: devoid of inhibitory activity; also recorded: do not interact with the active site of the enzyme

inhibition of deoxyhypusine synthase (in words) [2, 4]: failure to inhibit the enzyme
Molecule: NCCCN1CCC(CN)CC1 [Compound 31, 1-(3-Aminopropyl)-4-aminomethylpiperidine]

Molecule: NCCCCN [Compound 3, putrescine]
inhibition of deoxyhypusine synthase (in words) ([2]; pH 9.3): inhibit the enzyme

Molecule: CCCCCCCCN [Compound 13]
inhibition of deoxyhypusine synthase (in words) [2, 4]: does not appear to interact to any significant extent

inhibition of deoxyhypusine synthase (in words) [2, 4]: strong inhibition
Molecule: NCCCCCCCN [Compound 6, 1,7-diaminoheptane]

Molecule: NC(=O)C1=CN([C@@H]2O[C@H](COP(=O)(O)OP(=O)(O)OC[C@H]3O[C@@H](n4cnc5c(N)ncnc54)[C@H](O)[C@@H]3O)[C@@H](O)[C@H]2O)C=CC1 [NADH]
substrate or cofactor function for deoxyhypusine synthase (deoxyhypusine synthase): negligible

Molecule: N=C(N)NCCCCCCCCNC(=N)N [Compound 43, N^1,N^8-bisguanyl-1,8-diaminooctane]
relative inhibitory potency (in words) [2]: somewhat stronger an inhibitor than guazatine (compound 40), showed no better inhibition than the parent diamine, 1,8-diaminooctane (compound 7); also recorded: inhibition not widely different from its parent amine | inhibition of deoxyhypusine synthase (in words) [2, 4]: acted as inhibitors of deoxyhypusine synthase

Molecule: NCCCCNCCCN [Compound 10, spermidine]
pKa of N1-amino group [3]: 9.94 | pKa of N8-amino group [3]: 10.81

Molecule: altered eIF-5A precursor protein, in which Lys^50 is replaced by Arg: altered eIF-5A precursor protein, in which Lys^50 is replaced by Arg
substrate or cofactor function for deoxyhypusine synthase (deoxyhypusine synthase): is not

Molecule: NCCCN [Compound 2, 1,3-diaminopropane]
inhibition of deoxyhypusine synthase (in words) ([2]; pH 9.3, 37° C., 1 hour, 2.4 μM [3H]spermidine, listed as 1,3-diaminopropane): inhibit | inhibition of deoxyhypusine synthase (in words) ([2]; pH 9.3, 37° C., 1 hour, 2.4 μM [3H]spermidine, listed as compound 2): exerts product inhibition; also recorded: inhibit the enzyme | type of inhibition (kinetics) ([2]; varied [3H]spermidine, ec-eIF-5A(Lys) fixed at 1 μM): competitive

Molecule: N=C(N)NCCCCCCCN [Compound 49, N^1-guanyl-1,7-diaminoheptane]
relative inhibitory potency (in words) [2]: far exceeding the parent amines, as well as their bisguanylated counterparts, in inhibitory potency; also recorded: strongest inhibition of the compounds tested; also recorded: uniformly more efficient inhibition | Ki [2]: 9.7 nM | inhibition of deoxyhypusine synthase (in words) [2, 4]: excellent inhibitors | Ki, fold less than the apparent Km for spermidine ([2]; vs apparent Km for spermidine (4.5±0.7 μM)): about 450 fold

inhibition of deoxyhypusine synthase (in words) [2, 4]: excellent inhibitors
Molecule: N=C(N)NCCCNCCCN [Compound 48, N^1 -guanylcaldine]
relative inhibitory potency (in words) [2]: far exceeding the parent amines, as well as their bisguanylated counterparts, in inhibitory potency; also recorded: uniformly more efficient inhibition

inhibition of deoxyhypusine synthase (in words) [2, 4]: excellent inhibitors
Molecule: N=C(N)NCCCCCCCCN [Compound 50, N^1-guanyl-1,8-diaminooctane]
relative inhibitory potency (in words) [2]: far exceeding the parent amines, as well as their bisguanylated counterparts, in inhibitory potency; also recorded: uniformly more efficient inhibition

Molecule: N=C(N)NCCCCN [Compound 47, agmatine]
inhibition of deoxyhypusine synthase (in words) [2, 4]: moderate degree of inhibition; also recorded: mild degree of inhibition

inhibition of deoxyhypusine synthase (in words) [2, 4]: loss in binding
Molecule: c1ccc(CNCCCCCCCCNCc2ccccc2)cc1 [Compound 25, N,N'-bis-benzyl-1,8-diaminooctane]

inhibition of deoxyhypusine synthase (in words) [2, 4]: does not
Molecule: NCCCCCN [Compound 4, cadaverine]

inhibition of deoxyhypusine synthase (in words) [2, 4]: some degree of inhibition
Molecule: NCCCCCNCCCN [Compound 11, N-(3-aminopropyl)cadaverine]
substrate or cofactor function for deoxyhypusine synthase (deoxyhypusine synthase; listed as N-(3-aminopropyl)cadaverine): function as a substrate for deoxyhypusine synthase, albeit a poor one; also recorded: acts as a substrate | substrate or cofactor function for deoxyhypusine synthase (deoxyhypusine synthase; listed as compound 11): functions as a substrate, albeit a poor one

inhibition of deoxyhypusine synthase (in words) [2, 4]: strong inhibition
Molecule: NCCCCCCCCN [Compound 7, 1,8-diaminooctane]

inhibition of deoxyhypusine synthase (in words) [2, 4]: displays inhibition
Molecule: NCCCCCCN [Compound 5, 1,6-diaminohexane]

Ki [2]: 1200 nM
Molecule: N=C(N)NCCCCCCCNC(=N)N [Compound 42, N^1,N^7-bisguanyl-1,7-diaminoheptane]
relative inhibitory potency (in words) [2]: inhibition not widely different from its parent amine | inhibition of deoxyhypusine synthase (in words) [2, 4]: acted as inhibitors of deoxyhypusine synthase

Molecule: NCCCNCC(F)CCN (stereo not drawn) [Compound 36, 6-fluorospermidine]
inhibition of deoxyhypusine synthase (in words) [2, 4]: quite strong inhibitors; also recorded: effective inhibition; also recorded: act as inhibitors | inhibition of deoxyhypusine synthase [1]: 86% | pKa of N1-amino group [3]: 10.40 | pKa of N8-amino group [3]: 9.55

Molecule: CC(C)(CCCN)NCCCN [Compound 34, 5,5-dimethylspermidine]
inhibition of deoxyhypusine synthase (in words) [2, 4]: abolished inhibition; also recorded: failure to inhibit the enzyme

inhibition of deoxyhypusine synthase (in words) [2, 4]: somewhat reduced inhibition | increase in IC50 by bisguanylation ([2]; vs parent caldine (45 vs 9)): 5 fold
Molecule: N=C(N)NCCCNCCCNC(=N)N [Compound 45, N^1,N^7 -bisguanyl caldine]
relative inhibitory potency (in words) [2]: inhibition not widely different from its parent amine

inhibition of deoxyhypusine synthase (in words) [2, 4]: failure to inhibit the enzyme
Molecule: NCCCN[C@H]1CC[C@H](N)CC1 [Compound 33, N-(3-aminopropyl)-1,4-diaminocyclohexane]

Molecule: N=C(N)NCCCNC(=N)N [Compound 44, N^1,N^3-bisguanyl-1,3-diaminopropane]
inhibition of deoxyhypusine synthase (in words) [2, 4]: without inhibitory property; also recorded: no inhibition was detected

Molecule: NCCCNCCCN [Compound 9, caldine]
inhibition of deoxyhypusine synthase (in words) ([2]; pH 9.3): some degree of inhibition | substrate or cofactor function for deoxyhypusine synthase (deoxyhypusine synthase; listed as caldine): no detectable substrate property | substrate or cofactor function for deoxyhypusine synthase (deoxyhypusine synthase; listed as compound 9): fails to serve as a substrate

Molecule: NCCCNCCCON [Compound 39, N-(3-aminooxypropyl)-1,3-diaminopropane]
inhibition of deoxyhypusine synthase (in words) [2, 4]: without effect; also recorded: does not function as an inhibitor | pKa of aminooxy group ([3]; aminooxy group): 4.5-5.0

Molecule: N=C(N)NCCCCCCNC(=N)N [Compound 41, N^1,N^6-bisguanyl-1,6-diaminohexane]
relative inhibitory potency (in words) [2]: inhibition not widely different from its parent amine | inhibition of deoxyhypusine synthase (in words) [2, 4]: acted as inhibitors of deoxyhypusine synthase

Molecule: NCCCC[C@H](N)C(=O)O [free lysine, lysine]
substrate or cofactor function for deoxyhypusine synthase (deoxyhypusine synthase): Neither free lysine nor synthetic 9- or 16-member peptides modeled on the amino acid sequence encompassing the lysine residue in eIF-5A precursors that undergoes modification to hypusine, function as substrates

Molecule: N=C(N)NCCCN [Compound 46, N^1-guanyl-1,3-diaminopropane]
inhibition of deoxyhypusine synthase (in words) [2, 4]: without inhibitory property; also recorded: no inhibition was detected

Molecule: NCCCNCCCCNCCCN [Compound 12, spermine]
inhibition of deoxyhypusine synthase (in words) ([2]; pH 9.3): failure
